This passage reports IC50 results from patent US10919911B2, “Tricyclic ASK1 inhibitors” (Terns, Inc., priority 2018, dated 2021).

Each structure is given as a SMILES string.

The target in the experiment is ASK1 kinase (Homo sapiens (Human), UniProt Q99683). Briefly: RBC Kinase Assay (33P-ATP radiometric, myelin basic protein substrate). Conditions: 20 ng ASK1 kinase, MBP substrate, 120 min at room temperature, 1% DMSO. Format: biochemical. The protocol: Example B1. RBC Kinase Assay Protocol
Sequence of ASK1 kinase (Q99683 whole entry): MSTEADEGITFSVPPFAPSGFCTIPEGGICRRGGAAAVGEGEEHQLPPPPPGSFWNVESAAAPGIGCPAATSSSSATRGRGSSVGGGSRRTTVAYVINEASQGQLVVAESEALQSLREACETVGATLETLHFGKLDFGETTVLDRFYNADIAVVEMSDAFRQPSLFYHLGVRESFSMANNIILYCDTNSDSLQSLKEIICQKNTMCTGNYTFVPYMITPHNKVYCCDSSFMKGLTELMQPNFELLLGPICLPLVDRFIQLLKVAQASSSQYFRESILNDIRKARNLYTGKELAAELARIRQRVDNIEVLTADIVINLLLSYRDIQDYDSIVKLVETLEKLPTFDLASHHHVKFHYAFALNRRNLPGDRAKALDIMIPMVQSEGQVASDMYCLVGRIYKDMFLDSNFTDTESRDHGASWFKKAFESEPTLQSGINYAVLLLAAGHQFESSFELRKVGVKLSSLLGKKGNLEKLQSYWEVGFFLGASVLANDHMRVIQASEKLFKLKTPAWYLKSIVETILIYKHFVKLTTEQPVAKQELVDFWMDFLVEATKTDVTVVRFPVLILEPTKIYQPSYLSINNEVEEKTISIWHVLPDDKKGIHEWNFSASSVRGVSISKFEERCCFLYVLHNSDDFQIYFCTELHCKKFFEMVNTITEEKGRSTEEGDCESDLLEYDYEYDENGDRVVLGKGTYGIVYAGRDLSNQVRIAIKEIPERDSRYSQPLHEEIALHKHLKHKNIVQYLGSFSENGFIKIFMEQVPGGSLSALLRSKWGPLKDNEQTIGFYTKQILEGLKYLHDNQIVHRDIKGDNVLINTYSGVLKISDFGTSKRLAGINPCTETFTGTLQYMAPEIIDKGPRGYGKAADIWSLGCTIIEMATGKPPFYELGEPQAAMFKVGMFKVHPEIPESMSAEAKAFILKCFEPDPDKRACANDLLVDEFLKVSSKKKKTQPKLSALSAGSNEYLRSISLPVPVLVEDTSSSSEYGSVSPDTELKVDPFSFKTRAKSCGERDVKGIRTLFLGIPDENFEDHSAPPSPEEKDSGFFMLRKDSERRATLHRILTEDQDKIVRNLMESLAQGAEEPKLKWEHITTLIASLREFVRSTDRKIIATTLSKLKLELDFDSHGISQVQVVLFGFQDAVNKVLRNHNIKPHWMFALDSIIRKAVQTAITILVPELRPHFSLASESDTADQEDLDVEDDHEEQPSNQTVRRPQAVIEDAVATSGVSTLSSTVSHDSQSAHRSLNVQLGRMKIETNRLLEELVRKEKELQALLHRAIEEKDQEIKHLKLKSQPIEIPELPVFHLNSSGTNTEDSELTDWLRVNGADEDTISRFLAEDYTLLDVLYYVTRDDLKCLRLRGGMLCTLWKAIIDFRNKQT
Base Reaction buffer: 20 mM Hepes (pH 7.5), 10 mM MgCl2, 1 mM EGTA, 0.02% Brij35, 0.02 mg/ml BSA, 0.1 mM Na3VO4, 2 mM DTT, and 1% DMSO were used for the assay.
Myelin base protein (MPB) was prepared in freshly prepared Base Reaction Buffer. 20 ng of ASK1 kinase was delivered into the substrate solution and gently mixed. Compounds in DMSO were delivered into the kinase reaction mixture (final DMSO concentration 1%). Commercially available 33P-ATP was delivered into the reaction mixture to initiate the reaction. The kinase reaction was incubated for 120 min. at room temperature. Reactions were spotted onto P81 ion exchange paper (Whatman #3698-915). Filters were washed extensively in 0.75% Phosphoric acid. Radioactivity on filters was read, and IC50 values were determined.
As a reminder, the IC50 is the point on the concentration scale where inhibition reaches its midpoint. Higher therefore signals lower potency. `Cc1cc(F)c(C(=O)Nc2cccc3c2OC[C@@H](CF)n2cnnc2-3)cc1-n1cnc(C2CC2)c1` [Example 28, (S)-5-(4-cyclopropyl-1H-imidazol-1-yl)-2-fluoro-N-(5-(fluoromethyl)-5,6-dihydrobenzo[f][1,2,4]triazolo[4,3-d][1,4]oxazepin-8-yl)-4-methylbenzamide] registered a concentration for half-maximal inhibition (IC50) of 4.5 nM.
In turn, `Cc1cc(F)c(C(=O)Nc2cccc3c2OC[C@@H](CF)n2nnnc2-3)cc1-n1cnc(C2CC2)c1` [Example 30, (S)-5-(4-cyclopropyl-1H-imidazol-1-yl)-2-fluoro-N-(5-(fluoromethyl)-5,6-dihydrobenzo[f]tetrazolo[1,5-d][1,4]oxazepin-8-yl)-4-methylbenzamide] came in with an IC50 of 4.5 nM.
To `C[C@H]1COCCN1c1cnc(C(=O)Nc2cccc3c2OCCn2nnnc2-3)cc1-n1cnc(C2CC2)c1` [Example 65, (S)-4-(4-cyclopropyl-1H-imidazol-1-yl)-N-(5,6-dihydrobenzo[f]tetrazolo[1,5-d][1,4]oxazepin-8-yl)-5-(3-methylmorpholino)picolinamide] belongs 3.3 nM; to `Cc1cc(F)c(C(=O)Nc2cccc3c2OCCn2cnc(Br)c2-3)cc1-n1cnc(C2CC2)c1` [Example 74, N-(1-bromo-5,6-dihydrobenzo[f]imidazo[1,5-d][1,4]oxazepin-8-yl)-5-(4-cyclopropyl-1H-imidazol-1-yl)-2-fluoro-4-methylbenzamide], 39.8 nM; to `Cc1cc(F)c(C(=O)Nc2cccc3c2OC[C@H](CO)n2cnnc2-3)cc1-n1cnc(C2CC2)c1` [Example 16, (S)-5-(4-cyclopropyl-1H-imidazol-1-yl)-2-fluoro-N-(5-(hydroxymethyl)-5,6-dihydrobenzo[f][1,2,4]triazolo[4,3-d][1,4]oxazepin-8-yl)-4-methylbenzamide], 5.2 nM.
`CC(C)Oc1cnc(C(=O)Nc2cccc3c2OCCn2cnnc2-3)cc1-n1cnc(C2CC2)c1` [Example 73, 4-(4-cyclopropyl-1H-imidazol-1-yl)-N-(5,6-dihydrobenzo[f][1,2,4]triazolo[4,3-d][1,4]oxazepin-8-yl)-5-isopropoxypicolinamide] came in with an IC50 of 5.8 nM.
Turning to `Cc1cc(F)c(C(=O)Nc2cccc3c2OC[C@@H]([C@@H](C)O)n2nnnc2-3)cc1-n1cnc(C2CC2)c1` [Example 53, 5-(4-cyclopropyl-1H-imidazol-1-yl)-2-fluoro-N—((S)-5-((R)-1-hydroxyethyl)-5,6-dihydrobenzo[f]tetrazolo[1,5-d][1,4]oxazepin-8-yl)-4-methylbenzamide], the half-maximal inhibitory concentration (IC50) was 6.4 nM.
Regarding `Cc1cc(F)c(C(=O)Nc2cccc3c2OC[C@@H](C)n2nnnc2-3)cc1-n1cnc(C2CC2)c1` [Example 5, (R)-5-(4-cyclopropyl-1H-imidazol-1-yl)-2-fluoro-4-methyl-N-(5-methyl-5,6-dihydrobenzo[f]tetrazolo[1,5-d][1,4]oxazepin-8-yl)benzamide], the IC50 worked out at 5.8 nM.
Take `Cc1cc(F)c(C(=O)Nc2cccc3c2OC2(CC2)Cn2nnnc2-3)cc1-n1cnc(C2CC2)c1` [Example 59, 5-(4-cyclopropyl-1H-imidazol-1-yl)-2-fluoro-4-methyl-N-(5H-spiro[benzo[f]tetrazolo[1,5-d][1,4]oxazepine-6,1′-cyclopropan]-8-yl)benzamide]: half-maximal inhibition (IC50) was put at 4.2 nM.
The result for `C[C@H]1CN(c2cnc(C(=O)Nc3cccc4c3OCCn3nnnc3-4)cc2-n2cnc(C3CC3)c2)CCO1` [Example 66, (S)-4-(4-cyclopropyl-1H-imidazol-1-yl)-N-(5,6-dihydrobenzo[f]tetrazolo[1,5-d][1,4]oxazepin-8-yl)-5-(2-methylmorpholino)picolinamide] reads 6 nM; that for `O=C(Nc1cccc2c1OCCn1nnnc1-2)c1cc(-n2cnc(C3CC3)c2)ccn1` [Example 50, 4-(4-cyclopropyl-1H-imidazol-1-yl)-N-(5,6-dihydrobenzo[f]tetrazolo[1,5-d][1,4]oxazepin-8-yl)picolinamide], 3.9 nM; that for `CC1(C)COc2c(NC(=O)c3cc(-n4cnc(C5CC5)c4)c(N4CCOCC4)cn3)cccc2-c2nncn21` [Example 36, 4-(4-cyclopropyl-1H-imidazol-1-yl)-N-(5,5-dimethyl-5,6-dihydrobenzo[f][1,2,4]triazolo[4,3-d][1,4]oxazepin-8-yl)-5-morpholinopicolinamide], 5.6 nM.
`O=C(Nc1cccc2c1OCCn1nnnc1-2)c1cc(-n2cnc(C3CC3)c2)c(N2CCOCC2)cn1` [Example 21, 4-(4-cyclopropyl-1H-imidazol-1-yl)-N-(5,6-dihydrobenzo[f]tetrazolo[1,5-d][1,4]oxazepin-8-yl)-5-morpholinopicolinamide] yielded an IC50 of 6 nM.
`C[C@H]1COc2c(NC(=O)c3cc(-n4cnc(C5CC5)c4)c(N4CC[C@@H](O)C4)cn3)cccc2-c2nnnn21` [Example 78, 4-(4-cyclopropyl-1H-imidazol-1-yl)-5-((R)-3-hydroxypyrrolidin-1-yl)-N—((S)-5-methyl-5,6-dihydrobenzo[f]tetrazolo[1,5-d][1,4]oxazepin-8-yl)picolinamide]: the concentration for half-maximal inhibition (IC50) worked out at 4.7 nM.
Turning to `C[C@@H]1CN(c2cnc(C(=O)Nc3cccc4c3OC[C@@H](C)n3nnnc3-4)cc2-n2cnc(C3CC3)c2)CCO1` [Example 75, 4-(4-cyclopropyl-1H-imidazol-1-yl)-N—((R)-5-methyl-5,6-dihydrobenzo[f]tetrazolo[1,5-d][1,4]oxazepin-8-yl)-5-((R)-2-methylmorpholino)picolinamide], the IC50 came out at 4 nM.
`O=C(Nc1cccc2c1OCCn1nnnc1-2)c1cc(-n2cnc(C3CC3)c2)c(N2C[C@@H]3C[C@H]2CO3)cn1` [Example 64, 5-((1S,4S)-2-oxa-5-azabicyclo[2.2.1]heptan-5-yl)-4-(4-cyclopropyl-1H-imidazol-1-yl)-N-(5,6-dihydrobenzo[f]tetrazolo[1,5-d][1,4]oxazepin-8-yl)picolinamide]: it took 3.9 nM to reach half-maximal inhibition (IC50).
`Cc1cc(F)c(C(=O)Nc2cccc3c2O[C@@H](C)Cn2nnnc2-3)cc1-n1cnc(C2CC2)c1` [Example 42, (S)-5-(4-cyclopropyl-1H-imidazol-1-yl)-2-fluoro-4-methyl-N-(6-methyl-5,6-dihydrobenzo[f]tetrazolo[1,5-d][1,4]oxazepin-8-yl)benzamide] registered an IC50 of 16.8 nM.
Turning to `O=C(Nc1cccc2c1OCCn1nnnc1-2)c1cc(-n2cnc(C3CC3)c2)c(N2CCC2)cn1` [Example 58, 5-(azetidin-1-yl)-4-(4-cyclopropyl-1H-imidazol-1-yl)-N-(5,6-dihydrobenzo[f]tetrazolo[1,5-d][1,4]oxazepin-8-yl)picolinamide], the 50% inhibitory concentration (IC50) is 3.2 nM.
`Cc1cc(F)c(C(=O)Nc2cccc3c2OCC2(CC2)n2nnnc2-3)cc1-n1cnc(C2CC2)c1` [Example 14, 5-(4-cyclopropyl-1H-imidazol-1-yl)-2-fluoro-4-methyl-N-(6H-spiro[benzo[f]tetrazolo[1,5-d][1,4]oxazepine-5,1′-cyclopropan]-8-yl)benzamide]: the IC50 turned out to be 4.2 nM.
`O=C(Nc1cccc2c1OCC1(CC1)n1nnnc1-2)c1cc(-n2cnc(C3CC3)c2)c(N2CCOCC2)cn1` [Example 20, 4-(4-cyclopropyl-1H-imidazol-1-yl)-5-morpholino-N-(6H-spiro[benzo[f]tetrazolo[1,5-d][1,4]oxazepine-5,1′-cyclopropan]-8-yl)picolinamide] showed an IC50 of 6 nM.
